ChEMBL document CHEMBL5360653, “Marine Alkaloid Lepadins E and H Induce Ferroptosis for Cancer Chemotherapy” (J Med Chem, 2023)
Calls of active or inactive are those of the source. No cut-off for these calls is given here.

Key:
HeLa [1] = assay: Cytotoxicity against human HeLa cells incubated for 72 hrs by MTT assay; format: functional, cell-based
HeLa [2] = assay: Cytotoxicity against human HeLa cells assessed as increase in cell viability at 200 nM for 4 hrs relative to control; format: functional
HeLa [3] = assay: Effect on lipid peroxidation in human HeLa cells incubated at 200 nM for 4 hrs by C11-BODIPY581/591 staining based flow cytometric analysis; format: functional, cell-based

Row | Structure (SMILES) | IC50 (HeLa [1]) | Activity (HeLa [2]) | Activity (HeLa [3])
1 | CCC[C@@H](O)CCCC[C@H]1CCC[C@H]2N[C@@H](C)[C@H](O)C[C@@H]12 | > 20 µM |  | 
2 | CCCCC/C=C/C(=O)OC | > 20 µM |  | 
3 | CCC/C=C/C=C/C(=O)OC | > 20 µM |  | 
4 | CCCCCCCC(=O)O[C@@H]1C[C@H]2[C@@H](CCCC[C@H](O)CCC)CCC[C@H]2N[C@H]1C | 11.7 µM |  | 
5 | Clc1cccc(CNC2=Nc3ccccc3NC23CCNCC3)c1 |  | 5% | Active
